Measurements as given in article PMC10447463, “Data-mining unveils structure–property–activity correlation of viral infectivity enhancing self-assembling peptides” (Nature Communications, 2023).
Like-named read-outs stand apart in the source and are kept apart here.

What was measured:
[1] = format: physicochemical; details: for ThT Cat. / ThT-Fluorescence (categorical): ThT-active if fluorescence at least twice the control
In short: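 Preformed peptide fibrils (1 mg/mL) mixed with 50 µM ThT in PBS, 15 min at RT, fluorescence ex 440/em 488 nm versus PBS blank, triplicates. Zeta potential: peptides at 1 mg/mL in PBS pH 7.4, aged 1 d at RT, diluted in 1 mM KCl, Smoluchowski from electrophoretic mobility.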

[2] = system: HIV-1 infection of TZM-bl cells; assay: HIV-1 infectivity enhancement assay, β-galactosidase luminescence; format: cell-based; details: for Rel-EFC: infection relative to EF-C (QCKIKQIINMWQ = 1); for Log10 Infection Rel EFC: log10 of infection relative to EF-C; for Log Infectivity: Log10 infection relative to EF-C, TZM-bl cells, asymmetric std dev errors; for Log10 Infection Rel EF-C: HIV-1 infection of TZM-bl cells; for Abs. Inf.: absolute infection signal, HIV-1 on TZM-bl cells, β-galactosidase luminescence; for Log10 Inf. rel. to EF-C: log10 of HIV-1 infection of TZM-bl cells relative to EF-C (EF-C = 0); for Abs. Infection at 0.26 µM / Abs. Infection at 1.3 µM: mean of n = 3, Figure 4A; for Log10 of Rel to EFC (Feb2021): Log10 of infection relative to EF-C, all peptides of FigS16
[3] = Turbidity, derived count rate of scattered light; format: physicochemical; details: for Count Rate: derived count rate of scattered light (turbidity); for Log10 Count Rate: turbidity, derived count rate of scattered light, data of Figure 2D
[4] = ThT fluorescence category, 1 if Rel. ThT >2
[5] = Fig. S7 panel A (plotted against β-sheet content)
[6] = Log10 of infection rate relative to EF-C, Figure 3A source data
[7] = infection rate relative to EF-C, log10, data of Figure 2D
[8] = infection rate relative to EF-C, log10, source data of Figure 2C
[9] = Fig. S7 panel B (plotted against CR), rounded to two decimals

Substance | Tht category (> 2 to blank = +) ([1]; Fig S10 panel D) | Tht category (> 2 to blank = +) ([1]; FigS12 panel A) | ThT Cat, ([1]; FigS12 panel B) | ThT Cat, ([1]; ThT category, 1 if Rel. ThT >2) | ThT Cat. / ThT-Fluorescence (categorical) [1] | Rel-EFC ([2]; 1.3 µM peptide) | Log10 Infection Rel EFC ([2]; 1.3 µM peptide) | Log Infectivity [2, 5] | Log10 Infection Rel EF-C [2, 6] | Log10 Infection Rel EF-C [2, 7] | Log10 Infection Rel EF-C [2, 8] | Count Rate [3] | Log10 Count Rate [3] | ThT Cat. ([1]; Fig S10 panel E) | ThT Cat. ([1]; ThT category, 1 if Rel. ThT >2) | Log Infectivity [2, 9] | Abs. Inf. [2] | Log10 Inf. rel. to EF-C [2] | Log10 of Rel to EFC (Feb2021) [2] | further results
CEFEFQF | 0 (ThT-inactive (N-Fold <2)) | 0 (ThT-inactive (N-Fold <2)) | 0 (ThT-inactive (N-Fold <2)) | 0 (ThT-inactive (N-Fold <2)) | 0 (ThT-inactive (N-Fold <2)) | 0,01 | -2,28 | -2.283 | -2.28 | -2.283 | -2.283 | 367.4 | 2.565 |  |  |  |  |  |  | ThT Cat. [1, 4]: 0 (ThT-inactive (N-Fold <2))
CEIEIQI | 1 (ThT. Cat is 1, if Rel. ThT >2) | 1 (ThT. Cat is 1, if Rel. ThT >2) | 1 (ThT. Cat is 1, if Rel. ThT >2) | 1 (ThT. Cat is 1, if Rel. ThT >2) | 1 (ThT. Cat is 1, if Rel. ThT >2) | 0,03 | -1,55 | -1.554 | -1.55 | -1.554 | -1.554 | 51.97 | 1.716 | 1 (ThT. Cat is 1, if Rel. ThT >2) | 1 (ThT. Cat is 1, if Rel. ThT >2) | -1.55 | 633.3 | -1.554 |  | 
CETMYDKILKNLSRSR | 0 (ThT-inactive (N-Fold <2)) | 0 (ThT-inactive (N-Fold <2)) | 0 (ThT-inactive (N-Fold <2)) | 0 (ThT-inactive (N-Fold <2)) | 0 (ThT-inactive (N-Fold <2)) | 0,02 | -1,72 | -1.716 | -1.72 | -1.716 | -1.716 | 1099 | 3.041 | 0 (ThT-inactive (N-Fold <2)) | 0 (ThT-inactive (N-Fold <2)) | -1.72 | 363.3 | -1.716 |  | 
CHLHLQL | 1 (ThT. Cat is 1, if Rel. ThT >2) | 1 (ThT. Cat is 1, if Rel. ThT >2) | 1 (ThT. Cat is 1, if Rel. ThT >2) | 1 (ThT. Cat is 1, if Rel. ThT >2) | 1 (ThT. Cat is 1, if Rel. ThT >2) | 0,1 | -1,01 | -1.008 | -1.01 | -1.008 | -1.008 | 1155 | 3.062 | 1 (ThT. Cat is 1, if Rel. ThT >2) | 1 (ThT. Cat is 1, if Rel. ThT >2) | -1.01 | 2934 | -1.008 |  | Abs. Infection at 0.26 µM ([2]; peptide 0.26 µM): 572.2; Infect 1 0.26 µM ([2]; peptide 0.26 µM, replicate 1, absolute infection signal, Figure 4A): 545.6; Infect 2 0.26 µM ([2]; peptide 0.26 µM, replicate 2, absolute infection signal, Figure 4A): 488.9; Infect 3 0.26 µM ([2]; peptide 0.26 µM, replicate 3, absolute infection signal, Figure 4A): 682.2; Abs. Infection at 1.3 µM ([2]; peptide 1.3 µM): 2934; Infect 1 .3 µM ([2]; peptide 1.3 µM, replicate 1, absolute infection signal, Figure 4A): 3586; Infect 2 1.3µM ([2]; peptide 1.3 µM, replicate 2, absolute infection signal, Figure 4A): 2346; Infect 3 1.3 µM ([2]; peptide 1.3 µM, replicate 3, absolute infection signal, Figure 4A): 2872
CKFC | 0 (ThT-inactive (N-Fold <2)) | 0 (ThT-inactive (N-Fold <2)) | 0 (ThT-inactive (N-Fold <2)) | 0 (ThT-inactive (N-Fold <2)) | 0 (ThT-inactive (N-Fold <2)) | 0,01 | -1,96 | -1.959 | -1.96 | -1.959 | -1.959 | 235.1 | 2.371 | 0 (ThT-inactive (N-Fold <2)) | 0 (ThT-inactive (N-Fold <2)) | -1.96 | 240 | -1.959 |  | 
CKFKFQF | 1 (ThT. Cat is 1, if Rel. ThT >2) |  |  | 1 (ThT. Cat is 1, if Rel. ThT >2) | 1 (ThT. Cat is 1, if Rel. ThT >2) | 1,23 | 0,09 | 0.09083 | 0.09 | 0.09083 | 0.09083 | 5303 | 3.725 | 1 (ThT. Cat is 1, if Rel. ThT >2) | 1 (ThT. Cat is 1, if Rel. ThT >2) | 0.09 | 20066.66667 | 0.09083 | 0.09 | Abs. Infection at 0.26 µM ([2]; peptide 0.26 µM): 5684; Abs. Infection at 1.3 µM ([2]; peptide 1.3 µM): 20066.66667
CKFKFQFNM | 1 (ThT. Cat is 1, if Rel. ThT >2) |  |  | 1 (ThT. Cat is 1, if Rel. ThT >2) | 1 (ThT. Cat is 1, if Rel. ThT >2) | 1,24 | 0,09 | 0.09417 | 0.09 | 0.09417 | 0.09417 | 2224 | 3.347 | 1 (ThT. Cat is 1, if Rel. ThT >2) | 1 (ThT. Cat is 1, if Rel. ThT >2) | 0.09 | 28183.33333 | 0.09417 | 0.09 | 
CKFKFQFNMW | 1 (ThT. Cat is 1, if Rel. ThT >2) |  |  | 1 (ThT. Cat is 1, if Rel. ThT >2) | 1 (ThT. Cat is 1, if Rel. ThT >2) | 0,96 | -0,02 | -0.01766 | -0.02 | -0.01766 | -0.01766 | 4107 | 3.613 |  |  |  |  |  | -0.02 | ThT Cat. [1, 4]: 1 (ThT. Cat is 1, if Rel. ThT >2)
CKFKFQFNMWQ | 1 (ThT. Cat is 1, if Rel. ThT >2) |  |  | 1 (ThT. Cat is 1, if Rel. ThT >2) | 1 (ThT. Cat is 1, if Rel. ThT >2) | 1,16 | 0,06 | 0.06446 | 0.06 | 0.06446 | 0.06446 | 142.5 | 2.154 | 1 (ThT. Cat is 1, if Rel. ThT >2) | 1 (ThT. Cat is 1, if Rel. ThT >2) | 0.06 | 26320 | 0.06446 | 0.06 | 
CKFQC | 0 (ThT-inactive (N-Fold <2)) | 0 (ThT-inactive (N-Fold <2)) | 0 (ThT-inactive (N-Fold <2)) | 0 (ThT-inactive (N-Fold <2)) | 0 (ThT-inactive (N-Fold <2)) | 0,02 | -1,64 | -1.643 | -1.64 | -1.643 | -1.643 | 130.4 | 2.115 | 0 (ThT-inactive (N-Fold <2)) | 0 (ThT-inactive (N-Fold <2)) | -1.64 | 496.7 | -1.643 |  | 
CKIKIQIII | 1 (ThT. Cat is 1, if Rel. ThT >2) |  |  | 1 (ThT. Cat is 1, if Rel. ThT >2) | 1 (ThT. Cat is 1, if Rel. ThT >2) | 0,98 | -0,01 | -0.01045 | -0.01 | -0.01045 | -0.01045 | 4953 | 3.695 |  | 1 (ThT. Cat is 1, if Rel. ThT >2) |  | 22150 | -0.01045 | -0.01 | n-fold Infection, 1.3 µM ([2]; 1.3 µM peptide, n-fold infection): 41 n-fold
